Test results published in PubChem BioAssay (NCI).
Where “and” joins values, the source holds several entries; their conditions need not be identical. Equal entries are not always repeated.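 Dose response: 5 concentrations. Exposure: 48 h. Format: 96-well plates. Endpoint: linear interpolation; highest concentration if not reached. GI50 is the concentration that inhibits growth by half. The concentration for full growth arrest is given as TGI.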 *1 amine or outer side, *2 acyl side, *3 side chain or, on linkers, in order; H or OH if unused. Where a SMILES comes first, the peptide text is derived from it. Bridges are numbered along the chain shown (N, C = ends). [ ]: non-standard residue; d: D form. ξ: configuration not given here. X4 = CCC(C)C(N[*:1])C(O)CC(=O)O[C@H](C(=O)C(C)C(=O)[*:2])C(C)C; NMeY = CN[C@@H](Cc1ccc(O)cc1)C(=O)O; ξNMeL = CNC(CC(C)C)C(=O)O; ξT = CC(O)C(N)C(=O)O

Assays:
Assay in all cases: inhibition of tumour cell growth, NCI panel, 48 h
[1] = system: ACHN renal
[2] = system: CAKI-1 renal
[3] = system: CCRF-CEM leukemia
[4] = system: HL-60(TB) leukemia
[5] = system: HOP-62 NSCLC
[6] = system: MOLT-4 leukemia
[7] = system: OVCAR-5 ovarian
[8] = system: SF-295 CNS
[9] = system: SN12C renal
[10] = system: HCC-2998 colon

SMILES	TGI [1]	TGI [2]	TGI [3] [µM]	TGI [4]	TGI [5] [µM]	TGI [6] [µM]	TGI [7] [µM]	TGI [8] [µM]	TGI [9] [µM]	TGI [10]	GI50 [1] [µM]	GI50 [2] [µM]	GI50 [10] [µM]	GI50 [7] [µM]	GI50 [8] [µM]	GI50 [9] [µM]	GI50 [4] [µM]	GI50 [5] [µM]	GI50 [6] [µM]	GI50 [3] [µM]
CC(=O)O/N=C/c1ncccc1CO	> 100 µM	> 100 µM	> 100	> 100 µM	> 100	> 100	> 100	> 100	> 100	–	–	–	–	–	–	–	–	–	–	–
CC(=O)N/C(=C\c1ccc(/C=C(\NC(C)=O)c2nc3ccc(Cl)cc3[nH]2)cc1)c1nc2ccccc2[nH]1	> 100 µM	> 100 µM	> 100	–	> 100	> 100	> 100	–	> 100	–	–	–	–	–	–	–	–	–	–	–
NC(CCCCNC(=O)OCc1ccccc1)C(=O)NC(CCCCNC(=O)OCc1ccccc1)C(=O)ON1C(=O)CCC1=O (stereo not given)	> 100 µM	–	> 100	> 100 µM	> 100	> 100	> 100	–	> 100	> 100 µM	–	–	–	–	–	–	–	–	–	–
CN(C)c1ccc(/C=C2\Oc3cc(O)ccc3C2=O)cc1	> 100 µM	> 100 µM	> 100	> 100 µM	> 100	> 100	–	> 100	> 100	> 100 µM	–	–	–	–	–	–	–	–	–	–
COC1=CC23C=CC1[C@@H](c1ccccc1)C2=C(C)C(=O)N3C(=O)NC1CCCCC1 (stereo not given in full)	> 100 µM	45.1 µM	72.5	> 100 µM	50.2	45.9	68.2	53.7	–	52 µM	–	–	–	–	–	–	–	–	–	–
O=C(Nc1ccccc1)c1ccc(Cl)c([N+](=O)[O-])c1	–	40.4 µM	28.7	–	> 100	21.8	–	> 100	79.4	–	–	–	–	–	–	–	–	–	–	–
CC(C)=CC(C(O)c1ccccc1)S(=O)(=O)c1nccn1C (stereo not given)	> 100 µM	–	> 100	> 100 µM	> 100	> 100	> 100	> 100	> 100	> 100 µM	–	–	–	–	–	–	–	–	–	–
CC(=O)NC(CCCCNC(=O)OCc1ccccc1)C(=O)NCc1ccccc1 (stereo not given)	> 100 µM	> 100 µM	> 100	–	> 100	> 100	> 100	> 100	> 100	> 100 µM	–	–	–	–	–	–	–	–	–	–
COc1cc(-c2nc3ccc(C)cc3[nH]2)ccc1OCC(=O)N=Nc1c(O)[nH]c2ccccc12	13.6 µM	3.07 µM	–	–	–	–	4.19	3.82	3.19	3.31 µM	3.39	1.66	1.86	1.83	1.94	1.68	–	–	–	–
CCN(CC)CCn1c2c3ccccc3ccc2c2oc(=O)c3ccccc3c21	> 100 µM	> 100 µM	> 100	> 100 µM	80.3	–	> 100	> 100	–	–	–	–	–	–	–	–	–	–	–	–
COc1ccc2c(c1)sc1nc(-c3ccccc3)c(-c3ccsc3)n12	> 100 µM	> 100 µM	–	92.7 µM	> 100	> 100	> 100	> 100	> 100	93.1 µM	6.76	5.04	4.86	4.49	3.06	12.1	3.95	7.86	4.24	–
Cc1nc2ccc(C(F)(F)F)cc2nc1Nc1ccc(Cl)c(Cl)c1	23.4 µM	–	26.7	24 µM	30.5	48.2	28.7	11.8	24.3	13.7 µM	–	–	–	–	–	–	–	–	–	–
CCCCCCC/C=C/[C@H]1O[C@]23C(=O)C[C@@]4(C[C@@H](OC5OC(CO)C(O)C(O)C5O)C[C@@H]4[C@H]2C=C1C)OC3=O (stereo not given in full)	8.65 µM	–	> 33.3	7.53 µM	–	14.4	14.7	12.7	14.9	9.39 µM	4.31	–	4.44	6.06	5.12	5.46	1.2	–	1.31	1.19
CCC(C)C1NC(=O)C(NC(=O)C(CC(C)C)N(C)C(=O)[C@@H]2CCCN2)C(C)OC(=O)[C@H](Cc2ccc(OC)cc2)N(C)C(=O)[C@@H]2CCCN2C(=O)[C@H](CC(C)C)NC(=O)C(C)C(=O)[C@H](C(C)C)OC(=O)CC1O (stereo not given in full) (H-P[ξNMeL][ξT][X4]LP[NMeY](Me); ester 3-C)	0.0352 µM and 0.156 µM	0.364 µM and 0.13 µM	0.0557	0.0279 µM and 0.0213 µM	0.00782	0.00507	0.0794	0.0149	–	0.0104 µM and 0.0108 µM	–	–	–	–	–	–	–	–	–	–
O=[N+]([O-])c1c(/C=N/Nc2ccccc2)oc(-c2ccc3c(c2)OCO3)c1-c1ccc2c(c1)OCO2	> 100 µM	> 100 µM	–	33.5 µM	> 100	–	> 100	> 100	> 100	34.3 µM	–	–	–	–	–	–	–	–	–	–
CCN(CC)CCNc1c(OC)cc(C)c2sc3ccccc3c(=O)c12	15.8 µM	20.6 µM	–	18.9 µM	25	4.58	13.4	14.4	9.92	–	–	–	–	–	–	–	–	–	–	–
O=c1cc(-c2ccccc2)[nH]c2cc(Cl)cc(Cl)c12	> 100 µM	> 100 µM	> 100	> 100 µM	> 100	> 100	> 100	> 100	> 100	–	–	–	–	–	–	–	–	–	–	–
CC(=O)CC1CCC(=O)CCC(=O)OC(CC(C)=O)CCC(=O)CCC(=O)O1 (stereo not given)	> 100 µM	–	> 100	> 100 µM	> 100	> 100	> 100	> 100	> 100	> 100 µM	–	–	–	–	–	–	–	–	–	–
Cc1cc2c(CC(=O)O)[nH]nc2c(C(=O)O)c1C	> 100 µM	–	> 100	> 100 µM	> 100	> 100	> 100	> 100	> 100	> 100 µM	–	–	–	–	–	–	–	–	–	–
C=CCn1c(C)nc2cc(Nc3nc(Nc4ccc5nc(C)n(CC=C)c5c4)c4ccccc4n3)ccc21	1.01 µM	3.03 µM	0.76	4.13 µM	–	0.629	2	2.56	–	2.5 µM	0.292	1.61	1.17	0.751	1.19	–	1.7	–	0.229	0.279
CN(C)CCNc1nc2ccccc2c2c1c1c(n2Cc2ccccc2)-c2ccccc2C1=O	20.7 µM	37.1 µM	24.1	34.1 µM	37.2	18.5	27.8	24.9	27.5	–	6.43	18	–	12.3	9.33	12.6	15.2	18.1	4.77	7.86
Nc1c(C(=O)c2ccccc2)sc2nc(-c3cccs3)ccc12	13.3 µM	20.1 µM	> 100	–	17.8	1.12	14.5	1.71	27.4	4.25 µM	0.863	0.564	0.468	1.8	0.171	0.692	–	0.276	0.0504	0.524
O=C(Oc1ccc(O)c2c(=O)n3c(cc12)[nH]c1ccccc13)c1ccccc1	23.6 µM	–	20.7	51.7 µM	54.5	62.6	73.2	> 100	54	36.9 µM	7.55	–	18.6	28.4	40.8	12.6	21.6	22.4	16.4	3.71
O=C(O)C1CCc2ccc3ccccc3c2C1c1cccc2ccccc12 (stereo not given)	> 100 µM	> 100 µM	50.7	62 µM	35.9	48.7	37.9	69.4	59.3	–	–	–	–	–	–	–	–	–	–	–
COc1cc([C@H](C)c2ccc3ccccc3c2)cc(OC)c1OC	> 100 µM	–	> 100	0.745 µM	> 100	> 100	> 100	> 100	> 100	> 100 µM	0.857	–	1.24	0.997	0.201	1.08	0.184	0.578	0.504	0.274
C=CCNC(=S)N1CC(C)C(=O)Nc2ccccc21 (stereo not given)	> 100 µM	–	> 100	> 100 µM	> 100	> 100	> 100	> 100	> 100	–	–	–	–	–	–	–	–	–	–	–
Nc1ccc(C(=O)N/C(=C\C=C\c2ccco2)c2nc3[nH]c(=S)[nH]c(=O)c3[nH]2)cc1	> 100 µM	> 100 µM	> 100	–	–	> 100	> 100	> 100	> 100	> 100 µM	–	–	–	–	–	–	–	–	–	–
CN1CCN(CCSC2Cc3cc(Cl)ccc3Sc3ccccc32)CC1 (stereo not given)	19.8 µM	17.2 µM	–	5.46 µM	26.7	7.74	18.2	15.6	23.7	15.3 µM	–	–	–	–	–	–	–	–	–	–
Cc1cc2nc3c(C(OC4OC(CO)C(O)C(O)C4O)C(O)CO)nn(-c4ccccc4)c3nc2cc1C (stereo not given)	> 100 µM	–	> 100	–	> 100	> 100	> 100	> 100	> 100	> 100 µM	–	–	–	–	–	–	–	–	–	–
